According to ChEMBL document CHEMBL4373715, “Discovery and Biological Evaluations of Halogenated 2,4-Diphenyl Indeno[1,2-b]pyridinol Derivatives as Potent Topoisomerase IIα-Targeted Chemotherapeutic Agents for Breast Cancer” (J Med Chem, 2019):
Counter-ions that a name gives are not always drawn. Calls of active or inactive are those of the source. The calls are words filed in the database; no cut-off is given here.

Experiments:
HCT-15 = assay: Antiproliferative activity against human HCT15 cells measured after 72 hrs by EZ-Cytox assay; type: functional, cell-based; conditions: HCT-15, 72 h
[1] = biological target: T1, DNA topoisomerase 1 (Homo sapiens) (UniProt P11387); assay: Inhibition of recombinant human topoisomerase 1-mediated relaxation of supercoiled pBR322 DNA at 20 uM measured after 30 mins by ethidium bromide staining based agarose gel electrophoresis relative to control
T1 sequence (whole entry): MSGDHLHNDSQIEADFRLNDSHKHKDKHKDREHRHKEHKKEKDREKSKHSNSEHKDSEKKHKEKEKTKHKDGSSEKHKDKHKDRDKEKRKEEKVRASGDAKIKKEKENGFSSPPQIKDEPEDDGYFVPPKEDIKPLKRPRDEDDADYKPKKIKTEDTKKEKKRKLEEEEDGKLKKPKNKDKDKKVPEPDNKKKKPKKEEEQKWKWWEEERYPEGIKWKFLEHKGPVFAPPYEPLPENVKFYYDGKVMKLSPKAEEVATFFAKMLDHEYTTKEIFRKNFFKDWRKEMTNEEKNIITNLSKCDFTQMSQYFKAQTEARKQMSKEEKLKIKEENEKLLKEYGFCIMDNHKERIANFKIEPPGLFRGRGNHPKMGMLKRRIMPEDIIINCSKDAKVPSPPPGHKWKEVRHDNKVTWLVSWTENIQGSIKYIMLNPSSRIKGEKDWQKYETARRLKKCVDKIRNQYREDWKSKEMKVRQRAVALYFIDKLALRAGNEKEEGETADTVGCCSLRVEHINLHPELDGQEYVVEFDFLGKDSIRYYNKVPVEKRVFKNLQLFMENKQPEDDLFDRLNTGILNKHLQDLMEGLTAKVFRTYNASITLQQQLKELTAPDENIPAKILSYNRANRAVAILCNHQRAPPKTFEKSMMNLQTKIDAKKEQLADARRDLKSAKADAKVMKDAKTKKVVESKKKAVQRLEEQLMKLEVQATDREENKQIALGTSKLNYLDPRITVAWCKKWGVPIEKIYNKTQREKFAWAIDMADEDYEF

[2] = biological target: DNA topoisomerase 2-alpha (Homo sapiens) (UniProt P11388); assay: Inhibition of recombinant human topoisomerase 2alpha-mediated relaxation of supercoiled pBR322 DNA at 100 uM measured after 30 mins by ethidium bromide staining based agarose gel electrophoresis relative to control
DNA topoisomerase 2-alpha (Homo sapiens), sequence (P11388 whole entry): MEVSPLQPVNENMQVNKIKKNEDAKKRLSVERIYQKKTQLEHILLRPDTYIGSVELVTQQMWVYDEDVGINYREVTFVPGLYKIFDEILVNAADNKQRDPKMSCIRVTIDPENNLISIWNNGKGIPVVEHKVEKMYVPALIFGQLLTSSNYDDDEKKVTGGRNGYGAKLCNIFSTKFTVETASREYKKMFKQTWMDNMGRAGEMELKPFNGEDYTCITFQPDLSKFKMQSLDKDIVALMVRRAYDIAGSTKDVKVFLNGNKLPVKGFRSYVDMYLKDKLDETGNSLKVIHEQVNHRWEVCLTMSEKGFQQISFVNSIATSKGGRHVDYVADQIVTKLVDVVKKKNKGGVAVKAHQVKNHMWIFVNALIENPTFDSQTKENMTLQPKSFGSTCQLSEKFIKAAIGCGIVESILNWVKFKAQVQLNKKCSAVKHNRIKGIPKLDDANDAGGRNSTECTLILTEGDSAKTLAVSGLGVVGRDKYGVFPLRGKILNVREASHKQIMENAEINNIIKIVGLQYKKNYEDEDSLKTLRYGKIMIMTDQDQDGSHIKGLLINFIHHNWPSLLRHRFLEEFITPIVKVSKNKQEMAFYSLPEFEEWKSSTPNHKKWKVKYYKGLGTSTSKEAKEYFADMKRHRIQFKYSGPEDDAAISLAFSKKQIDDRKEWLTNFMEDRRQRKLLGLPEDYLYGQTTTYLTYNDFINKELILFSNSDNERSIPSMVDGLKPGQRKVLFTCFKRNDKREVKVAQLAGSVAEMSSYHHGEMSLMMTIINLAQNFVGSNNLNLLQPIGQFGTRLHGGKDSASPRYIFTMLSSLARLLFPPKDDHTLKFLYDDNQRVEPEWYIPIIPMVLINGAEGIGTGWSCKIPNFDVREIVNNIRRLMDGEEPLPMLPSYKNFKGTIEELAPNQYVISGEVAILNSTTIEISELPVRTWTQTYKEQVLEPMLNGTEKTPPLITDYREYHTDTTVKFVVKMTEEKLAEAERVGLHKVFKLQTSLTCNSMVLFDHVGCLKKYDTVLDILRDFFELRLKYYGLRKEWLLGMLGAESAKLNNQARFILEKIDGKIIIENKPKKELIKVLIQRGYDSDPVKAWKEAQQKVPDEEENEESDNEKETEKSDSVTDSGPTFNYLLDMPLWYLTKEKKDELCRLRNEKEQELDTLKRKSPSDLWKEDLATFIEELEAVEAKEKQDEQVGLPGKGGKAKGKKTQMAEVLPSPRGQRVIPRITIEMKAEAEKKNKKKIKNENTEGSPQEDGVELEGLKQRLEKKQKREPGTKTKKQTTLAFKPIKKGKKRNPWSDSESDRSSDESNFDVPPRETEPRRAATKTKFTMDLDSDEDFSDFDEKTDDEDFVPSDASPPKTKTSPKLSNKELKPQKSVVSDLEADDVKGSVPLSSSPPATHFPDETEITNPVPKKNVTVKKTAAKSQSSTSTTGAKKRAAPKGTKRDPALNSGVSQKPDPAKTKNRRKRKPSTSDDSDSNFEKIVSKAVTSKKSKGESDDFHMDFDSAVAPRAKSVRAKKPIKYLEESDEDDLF

T47D [3] = assay: Antiproliferative activity against human T47D cells measured after 72 hrs by EZ-Cytox assay; type: functional, cell-based
[4] = biological target: T1, DNA topoisomerase 1 (Homo sapiens); assay: Inhibition of recombinant human topoisomerase 1-mediated relaxation of supercoiled pBR322 DNA at 100 uM measured after 30 mins by ethidium bromide staining based agarose gel electrophoresis relative to control
[5] = biological target: DNA topoisomerase 2-alpha (Homo sapiens) (UniProt P11388); assay: Inhibition of recombinant human topoisomerase 2alpha-mediated relaxation of supercoiled pBR322 DNA at 20 uM measured after 30 mins by ethidium bromide staining based agarose gel electrophoresis relative to control
DU-145 = assay: Antiproliferative activity against human DU145 cells measured after 72 hrs by EZ-Cytox assay; type: functional, cell-based; conditions: DU-145, 72 h
HeLa = assay: Antiproliferative activity against human HeLa cells measured after 72 hrs by EZ-Cytox assay; type: functional, cell-based
Calf thymus DNA = assay: Inhibition of EtBr binding to calf thymus DNA measured after 30 mins by fluorescence assay; type: nucleic-acid assay; conditions: Bos taurus
HCC70 = assay: Antiproliferative activity against human HCC70 cells measured after 72 hrs by Ez-cytox assay; type: functional, cell-based; conditions: HCC70, 72 h
MDA-MB-231 = assay: Antiproliferative activity against human MDA-MB-231 cells measured after 72 hrs by Ez-cytox assay; type: functional, cell-based; conditions: MDA-MB-231, 72 h
MDA-MB-436 = assay: Antiproliferative activity against human MDA-MB-436 cells measured after 72 hrs by Ez-cytox assay; type: functional, cell-based; conditions: MDA-MB-436, 72 h
[6] = biological target: DNA topoisomerase 2-alpha (Homo sapiens) (UniProt P11388); assay: Poison activity at topoisomerase-2 alpha in human T47D cells assessed as stabilization of enzyme-DNA cleavage complex by measuring reduction in topo-2alpha level at 50 uM measured after 2 hrs by Western blot analysis; type: cell-based
T47D [7] = assay: Induction of DNA damage in human T47D cells at 5 to 10 uM measured after 24 hrs by comet assay; type: functional, cell-based

Row | inhibition [1] | inhibition [2] | inhibition [4] | inhibition [5] | inhibition (Calf thymus DNA) | Compound | IC50 (HCT-15) | IC50 (T47D [3]) | IC50 (DU-145) | IC50 (HeLa) | IC50 (HCC70) | IC50 (MDA-MB-231) | IC50 (MDA-MB-436) | IC50 (HCC70; read-out: IC50) | Activity [6] | Activity (T47D [7])
1 | 0% | 89.5% | 65.7% | 2.1% | – | Oc1cccc(-c2cc(-c3ccccc3C(F)(F)F)nc3c2Cc2c(O)cccc2-3)c1 | 3.39 µM | 1.46 µM | 1.8 µM | 3.79 µM | – | – | – | – | – | –
2 | – | – | – | – | Dose-dependent effect | COc1cc(NS(C)(=O)=O)ccc1Nc1c2ccccc2nc2ccccc12 | – | – | – | – | – | – | – | – | – | –
3 | 6.3% | 91.3% | 77.4% | 20% | – | Oc1cccc(-c2cc(-c3ccccc3Cl)c3c(n2)-c2ccc(O)cc2C3)c1 | 3.82 µM | 2.84 µM | 2.35 µM | 6.48 µM | – | – | – | – | – | –
4 | 7.4% | 55.9% | 37% | 3.5% | – | Oc1ccc2c(c1)Cc1c(-c3ccccc3Cl)cc(-c3ccccc3O)nc1-2 | 3.13 µM | 3.82 µM | 4.43 µM | 17.9 µM | – | – | – | – | – | –
5 | 0% | 97% | 62.9% | 13% | – | Oc1ccc(-c2cc(-c3ccccc3Cl)c3c(n2)-c2cccc(O)c2C3)cc1 | 2.42 µM | 1.73 µM | 5.84 µM | 3.72 µM | – | – | – | – | – | –
6 | 0% | 83.2% | 87.4% | 1.1% | – | Oc1ccc(-c2cc(-c3ccc(C(F)(F)F)cc3)nc3c2Cc2cc(O)ccc2-3)cc1 | 2.63 µM | 1.91 µM | 1.14 µM | 4.8 µM | – | – | – | – | – | –
7 | – | – | – | – | – | CC[C@@]1(O)C(=O)OCc2c1cc1n(c2=O)Cc2cc3ccccc3nc2-1 [CAMPTOTHECIN] | 0.049 to 0.35 µM | 0.25 to 1.98 µM | 0.05 to 0.81 µM | 0.5 to 1.39 µM | 0.044 µM | 24 µM | 31.9 µM | – | – | –
8 | 0% | 83.1% | 100% | 0.5% | – | Oc1ccc(-c2cc(-c3ccc(C(F)(F)F)cc3)nc3c2Cc2ccc(O)cc2-3)cc1 | 5.03 µM | 1.36 µM | 2.98 µM | 5.51 µM | – | – | – | – | – | –
9 | 14.8% | 74.1% | 59.1% | 38.2% | – | Oc1ccc2c(c1)-c1nc(-c3ccccc3O)cc(-c3ccccc3Cl)c1C2 | 7.98 µM | 3.28 µM | 3.99 µM | > 50 µM | – | – | – | – | – | –
10 | – | – | – | – | – | COc1cc([C@@H]2c3cc4c(cc3[C@@H](O[C@@H]3O[C@@H]5CO[C@@H](C)O[C@H]5[C@H](O)[C@H]3O)[C@H]3COC(=O)[C@H]23)OCO4)cc(OC)c1O [ETOPOSIDE] | 1.27 to 6.97 µM | 1.64 to 5.54 µM | 1.15 to 4.49 µM | 4.13 to 9.75 µM | – | > 50 µM | 39.4 µM | > 50 µM | Active | Active
11 | – | – | – | – | – | COc1cccc2c1C(=O)c1c(O)c3c(c(O)c1C2=O)C[C@@](O)(C(=O)CO)C[C@@H]3O[C@H]1C[C@H](N)[C@H](O)[C@H](C)O1 [DOXORUBICIN HYDROCHLORIDE] | 0.74 to 2.02 µM | 0.34 to 1.5 µM | 0.87 to 2.96 µM | 0.8 to 4.59 µM | – | 5.18 µM | 2.03 µM | 1.45 µM | – | –
